{"source": "patent US20060240402A1", "about": "“Marine invertebrate gametes and embryos as an assay system for therapeutic screening” (priority 2005, published 2006)", "key": {"sea urchin tubulin": {"tested_on": "sea urchin tubulin", "assay": "Tubulin polymerization (turbidity) assay, sea urchin tubulin", "assay_type": "biochemical, Strongylocentrotus purpuratus", "conditions": "0.025 uM, 0.25 uM and 2.5 uM", "procedure": "Sea urchin (Strongylocentrotus purpuratus) microtubules are prepared by three cycles of polymerization/depolymerization as previously described (Suprenant, K. A., and J. C. Marsh (1987) J. Cell Sci. 87: 71-84). Aliquots of ˜0.5-2.0 mg/ml protein are stored in 100 mM potassium-Pipes, pH 6.9, 1 mM EGTA, 5 mM MgSO4, 2 mM GTP (reassembly buffer) at −80° C. Three-cycled tubulin is diluted with reassembly buffer to 0.7 mg/ml for all functional assays unless otherwise stated.\n(§1) The tubulin polymerization assay used herein is performed according to the teachings of Vogel, J. M., Steams, T., Rieder, C. L. and Palazzo, R. E. (1997) J. Cell Biol. 137: 193-202 and Suprenant K A, Marsh J C. (1987) J Cell Sci. 87:71-84, each of which is incorported herein by reference in its entirety.\nThe effect of HMN-176 on sea urchin tubulin (0.75 mg/mL of S. purpuratus tubulin at 26° C.) polymerization in defined media was examined according to the methods described above. Sea urchin tubulin was isolated from Strongylocentrotus purpuratus oocytes by three cycles of microtubule polymerization and depolymerization. After the third cycle, microtubules were depolymerized, centrifuged to clarify, and the resulting supernatant adjusted to a concentration of 0.75 mg/ml protein. Samples were aliquoted and stored at −80° C.\nThe polymerization assay was used to test the effects of varying concentrations of HMN-176 (0.025 uM, 0.25 uM and 2.5 uM) along with varying amounts of DMSO for control (0.0001%, 0.001% and […]), respectively. Polymerization of untreated tubulin was also measured.\n(§2) Sea urchin and clam tubulin turbidity assays were performed at 30° C. and 0.7 mg/mL of tubulin. Doses of 0.025 uM, 0.25 uM and 2.5 uM of HMN-176 were compared to DMSO treatment, all of which were compared to untreated control."}, "[1]": {"tested_on": "centrosomes in Spisula lysates", "assay": "Lysate aster formation assay", "assay_type": "biochemical, Spisula solidissima", "conditions": "0.025 uM, 0.25 uM or 2.5 uM", "procedure": "(§3) Briefly, adult Spisula or Mulinia are collected from the Atlantic Ocean, often by the Marine Resources Department of the Marine Biological Laboratory (Woods Hole, Mass.) or from commercial fisherman and maintained in flow-through sea water tanks at ˜13° C. containing artificial sea water (ASW). Oocytes are then dissected from ripe ovaries, passed through cheese cloth, and washed in sea water by three cycles of suspension/sedimentation. Oocytes are then activated by treatment with KCl for 4 min, and lysates are prepared as previously described by Palazzo et al. (Palazzo, R. E., J. B. Brawley, and L. I. Rebhun (1988). Zool. Sci. (Tokyo). 5: 603-611).\n(§4) Aster formation in oocytes, embryos, and lysates is assessed with polarized light microscopy by adding 3% hexylene glycol to small aliquots and warming to 24° C. (Palazzo, R. E., J. B. Brawley, and L. I. Rebhun (1988). Zool. Sci. (Tokyo). 5: 603-611). The remaining lysate is aliquoted, snap frozen, and stored at −80° C. Frozen lysates retain the ability to assemble asters after years of storage.\nUsing the lysate aster formation assay described above, Spisula lysates were warmed to room temperature with lysates containing varying amounts of HMN-176 (0.025 uM, 0.25 uM or 2.5 uM) or DMSO (0.0001%, 0.001%, or 0.01%) as control. […]"}, "CFPAC cells": {"tested_on": "CFPAC cells", "assay": "Mammalian spindle phenotypes and time in mitosis in CFPAC cells", "assay_type": "cell-based, human", "procedure": "To determine the effect of HMN-176 on mammalian cell lines, the transformed human cell line, CFPAC, was used. CFPAC cells were derived from a ductal adenocarcinoma (liver metastasis) from a patient with cystic fibrosis (ATCC #CRL-1918). CFPAC cellswere treated for 2 hours with 0.5 uM DMSO or 0.5 uM HMN-176 (n=79). Cells were studied for progression through mitosis and cell cleavage using video microscopy, or prepared for immunofluorescence analysis with antibodies to visualize beta tubulin or treated with Hoechst 33342 (Sigma Aldrich, St. Louis, Mo. to visualize DNA and chromosomes."}, "[2]": {"tested_on": "Isolated centrosomes reconstituted with sea urchin tubulin", "assay": "Isolated centrosome assay (aster formation in defined media)", "assay_type": "biochemical, Spisula solidissima", "conditions": "0.25 uM, 0.75 mg/mL sea urchin tubulin, time course of 25 minutes", "description": "Centrosomes are isolated and prepared according to the methods of Vogel et al. (Vogel, J. M., Stearns, T., Rieder, C. L. and Palazzo, R. E. (1997) J. Cell Biol. 137: 193-202). Briefly, centrosomes are isolated from lysates by sucrose density-gradient centrifugation using a modification of the procedures known in the art for isolation of mammalian centrosomes. As such, lysates are thawed on ice, and aliquots are removed and tested for aster formation using hexylene glycol and polarized light microscopy as previously described. For each preparative gradient, 2-3 ml of crude lysate (˜9-18×10^6 centrosomes) are diluted with 0.60 vol of aster buffer (Aster Buffer: 20 mM sodium-Pipes, pH 7.2, 100 mM NaCl, 5.0 mM MgSO4), resuspended, and centrifuged (5,500 g/4° C./10 min) using a rotor (model JS 13.1; Beckman Instruments). […] Fractions (1.0 ml) are collected at 4° C. by bottom puncture of centrifuge tubes, and sucrose density is determined with the use of a hand-held refractometer.\nFractions are tested for centrosome content based on their ability to organize microtubules in the form of radial astral arrays when reconstituted with tubulin media. Thus, 10 μl aliquots from each fraction are diluted into 40 μl of tubulin media (0.3-0.7 mg/ml three-cycled sea urchin tubulin in RAB buffer containing 2 mM GTP) and incubated for 10 min at ambient temperature, and asters are counted using a hemacytometer viewed with a polarized light microscope. […]\nCentrosome assembly and function is crucial for the coordinated polymerization of microtubules that leads to spindle assembly and chromosome segregation during mitosis. […] The isolated centrosome assay is used to (1) induce the synchronous assembly of centrosomes in hundreds of grams of live Spisula oocytes or large quantities of oocyte lysates and is performed according to the methods disclosed by Palazzo, R. E., Vaisberg, E., Cole, R. W. and Rieder, C. […]"}, "clam tubulin": {"tested_on": "clam tubulin", "assay": "Tubulin turbidity assay, clam tubulin", "assay_type": "biochemical, Spisula solidissima", "conditions": "0.025 uM, 0.25 uM and 2.5 uM; 30° C., 0.7 mg/mL of tubulin", "procedure": "Three-cycled tubulin can also be prepared from Spisula oocyte lysates using a modification of the procedure described in Suprenant, K. A. (1989) Exp. Cell Res. 184: 167-180. Lysates are thawed and diluted with 0.8 vol of dilution buffer (100 mM potassium-Pipes, pH 7.2, 4 mM EGTA, 1 mM MgSO4, 1 mM DTT) containing 1 mM GTP, […] leupeptin, and 0.2 mM phenylmethylsulfonyl fluoride. Diluted lysate is then gently resuspended on ice and centrifuged (39,000 g/2° C./30 min) using a rotor (model JA20; Beckman Instruments Fullerton, Calif.) to clarify. Supernatants are collected and three-cycled tubulin prepared as previously described (Suprenant, K. A. (1989) Exp. Cell Res. 184: 167-180).\nas §1, §2"}, "Spisula oocytes": {"tested_on": "Spisula oocytes", "assay": "Whole egg germinal vesicle breakdown (GVBD) and spindle assembly assay", "assay_type": "cell-based, Spisula solidissima", "procedure": "Oocytes are prepared as generally described in Allen R D. (1953) Biol Bull. 105:213-239; Palazzo, R. E., Vaisberg, E., Cole, R. W. and Rieder, C. L. (1992) Science. 256: 219-221; Vogel, J. M., Stearns, T., Rieder, C. L. and Palazzo, R. E. (1997) J. Cell Biol. 137: 193-202; and Schnackenberg, B. J. and Palazzo, R. E. (1999) Biology of the Cell. 91: 429-438.\nas §3, §4\nIn one embodiment of the invention, oocyte activation to induce GVBD, aster formation, spindle assembly, and cleavage can be induced by 5-hydroxy triptamine (5-HT, serotonin), fertilization, or depolarization of the cell plasma membrane by treatment with KCl when cells are incubated in sea water. This requires the entry of calcium into the cell after treatment with these agents. Thus, the GVBD, or events subsequent to GVBD, can be used as indicators for hormone-receptor interactions (serotonin), effect of calcium channel blockers (resulting in a block of GVBD and subsequent events after treatment with KCL, 5HT or sperm), or agents that block fertilization generally. Therefore the present invention can be used not only to screen for antimitotic agents but also putative neuromodulators (serotonin inhibitors and the like), cardiomodulators, vasoactive agents (calcium channel blockers) and anti-fertility agents.\nUsing the whole egg assay described above, Spisula oocytes were treated with 0.25 μM HMN-176 or 0.001% DMSO and activated to undergo germinal vesicle (nucleus) breakdown (GVBD), and aster and spindle formation."}, "mouse xenograft models": {"tested_on": "mouse xenograft models", "conditions": "cited from earlier work"}, "human tumor cell lines": {"tested_on": "human tumor cell lines", "conditions": "several human tumor cell lines; cited from earlier work"}, "[3]": {"conditions": "0.75 mg/mL S. purpuratus tubulin at 26° C."}, "[4]": {"conditions": "0.5 uM treatment for 2 hours, n = 79"}, "[5]": {"conditions": "marine invertebrate gamete system, concentration not given"}}, "data": [{"smiles": "COc1ccc(S(=O)(=O)Nc2ccccc2/C=C/c2cc[n+]([O-])cc2)cc1", "note": "[HMN-176, (E)-4-{[2-N-[4-methoxybenzenesulfonyl]amino]stillbazole}1-oxide]", "values": [{"measurement": "Effect on polymerization of tubulin", "setting": "sea urchin tubulin; [3]", "result": "only minor effect on the polymerization of tubulin"}, {"measurement": "Effect on rate of microtubule polymerization", "setting": "sea urchin tubulin; [3]", "result": "may slightly lower the rate of microtubule polymerization"}, {"measurement": "Effect on ultimate plateau of tubulin polymerization (turbidity)", "setting": "sea urchin tubulin; 0.75 mg/mL S. purpuratus tubulin at 26° C., by 25 minutes", "result": "does not affect the ultimate plateau"}, {"measurement": "Effect on sea urchin tubulin turbidity", "setting": "sea urchin tubulin; 30° C., 0.7 mg/mL of tubulin", "result": "Very little to no effect"}, {"measurement": "Status of centrosomes (immunofluorescence alpha-/gamma-tubulin)", "setting": "[1]; lysates", "result": "centrosomes remained intact in all samples"}, {"measurement": "Effect on aster formation in lysates", "setting": "[1]; lysates warmed to room temperature", "result": "blocked aster formation in the lysate aster formation assay in a dose dependent manner"}, {"measurement": "Spindle types observed", "setting": "CFPAC cells; 0.5 uM for 2 hours", "result": "multipolar spindles with disorganized chromosomes"}, {"measurement": "Spindle type: Bipolar, number of cells", "setting": "CFPAC cells; [4]", "result": 13}, {"measurement": "Spindle type: Bipolar, percent of cells", "setting": "CFPAC cells; [4]", "result": 16, "unit": "%"}, {"measurement": "Spindle type: Monopolar, number of cells", "setting": "CFPAC cells; [4]", "result": "Monopolar 0 (0%)"}, {"measurement": "Spindle type: Monopolar, percent of cells", "setting": "CFPAC cells; [4]", "result": "Monopolar 0 (0%)"}, {"measurement": "Spindle type: Multipolar, number of cells", "setting": "CFPAC cells; [4]", "result": 66}, {"measurement": "Spindle type: Multipolar, percent of cells", "setting": "CFPAC cells; [4]", "result": 84, "unit": "%"}, {"measurement": "Time that CFPAC cells were in mitosis", "setting": "CFPAC cells; 0.5 uM, video microscopy", "result": "147 ± 55", "unit": "min"}, {"measurement": "Aster formation by isolated centrosomes in defined media", "setting": "[2]", "result": "no asters were formed"}, {"measurement": "Background microtubule polymerization (not centrosome-associated)", "setting": "[2]", "result": "microtubule polymerization was observed in the background"}, {"measurement": "Status of centrosomes (gamma-tubulin staining)", "setting": "[2]", "result": "Centrosomes remained intact in all samples"}, {"measurement": "Effect on clam tubulin turbidity", "setting": "clam tubulin", "result": "Very little to no effect"}, {"measurement": "Effect on germinal vesicle breakdown (GVBD)", "setting": "Spisula oocytes; 0.25 μM, activated Spisula oocytes, observed at 9-26 minutes", "result": "not affecting GVBD"}, {"measurement": "Effect on spindle assembly in oocytes", "setting": "Spisula oocytes; 0.25 μM, activated Spisula oocytes, observed at 15 and 26 minutes", "result": "inhibit spindle assembly"}]}, {"smiles": "COc1ccc(S(=O)(=O)N(C(C)=O)c2ccccc2/C=C/c2cc[n+]([O-])cc2)cc1", "note": "[HMN-214, (E)-4-{2-[2-(N-acetyl-N-[4-methoxybenzenesulfonyl]amino]stillbazole]}1-oxide]", "values": [{"measurement": "Antitumor activity", "setting": "mouse xenograft models", "result": "potent antitumor activity"}]}, {"smiles": "COc1cc2c(c(OC)c1OC)-c1ccc(OC)c(=O)cc1[C@@H](NC(C)=O)CC2", "note": "[Colchicine]", "values": [{"measurement": "Cytotoxicity", "setting": "human tumor cell lines", "result": "cytotoxic"}, {"measurement": "Effect on GVBD", "setting": "Spisula oocytes; [5]", "result": "does not affect GVBD"}, {"measurement": "Effect on spindle assembly", "setting": "Spisula oocytes; [5]", "result": "inhibits spindle assembly"}]}]}
